Source: the NIST ThermoML archive (doi:10.1021/acs.jced.6b00655)
Where “and” joins values, the source holds several entries; their conditions need not be identical. Equal entries are not always repeated. ± gives the expanded uncertainty stated by the source.

Settings: 343.15 K; 100 kPa; Liquid; Vibrating tube method

CCCC[N+](C)(CCCC)CCCC.O=S(=O)([N-]S(=O)(=O)C(F)(F)F)C(F)(F)F [tributylmethylammonium bis((trifluoromethyl)sulfonyl)imide]
mass density: 1224.15 ± 10 kg/m3 and 1224.18 ± 10 kg/m3
